Experimental data taken from publication PMC3673990, “Physicochemical Characterization of a Thermostable Alcohol Dehydrogenase from Pyrobaculum aerophilum” (PLoS ONE, 2013).

Key:
[1] = target: T1, PyAeADHII (Pyrobaculum aerophilum, UniProt Q8ZUP0); experiment: X-ray co-crystal structure, […] Å; format: binding; details: modelled as NADPH, NADP+ not excluded; pH 7.5
T1 construct: gene PAE2687; structural zinc only (Cys-91, Cys-94, Cys-97, Cys-105); Asn-39, Ser-61, Ile-147, Arg-88 in active site

[2] = target: T1, PyAeADHII; experiment: spectrophotometric NADPH oxidation at […] nm; format: biochemical; details: 0.3 mM NADPH, 50 mM sodium phosphate pH 7.5, 37 °C; reduction to alpha-tetralol

T1 sequence (Q8ZUP0 entry or part of it): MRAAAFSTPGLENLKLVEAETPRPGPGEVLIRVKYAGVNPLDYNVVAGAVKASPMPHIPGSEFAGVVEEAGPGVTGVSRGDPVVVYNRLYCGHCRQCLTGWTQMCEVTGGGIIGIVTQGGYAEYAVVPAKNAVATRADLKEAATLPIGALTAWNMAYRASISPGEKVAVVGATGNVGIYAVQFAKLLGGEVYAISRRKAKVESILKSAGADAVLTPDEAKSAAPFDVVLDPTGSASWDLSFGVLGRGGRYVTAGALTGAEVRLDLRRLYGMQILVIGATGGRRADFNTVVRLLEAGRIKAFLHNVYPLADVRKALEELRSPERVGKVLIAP

Structure (SMILES) | X-ray co-crystal structure, 2.35 Å [1] | spectrophotometric NADPH oxidation at 340 nm [2]
NC(=O)C1=CN([C@@H]2O[C@H](COP(=O)(O)OP(=O)(O)OC[C@H]3O[C@@H](n4cnc5c(N)ncnc54)[C@H](OP(=O)(O)O)[C@@H]3O)[C@@H](O)[C@H]2O)C=CC1 [NADPH] | we determined the co-crystal structure of PyAeADHII monomer bound to NADPH | 
O=C1CCCc2ccccc21 [α-tetralone] |  | The standard assay for the reduction reaction of α-tetralone
